Data reported in patent publication US11753373B2, “Protease inhibitors as antivirals” (priority 2021, dated 2023).
pEC50: −log10 of the molar value.

Legend:
SARS-CoV-2 = test: Anti-viral in vitro PRNT assay in Vero E6 cells; type: cell-based; conditions: Severe acute respiratory syndrome coronavirus 2, Vero C1008, 72 h; Vero E6 cells, 1000 pfu, 3 days, plaque reduction; read-out: anti-SARS-CoV2 (PRNT) in Vero E6 EC50
in vivo [1] = conditions: female, beagle, dog, po, 40 mg/kg
Method: Pharmacokinetics of test compounds was evaluated following an oral administration of a single dose (at 40 mg/kg) to female Beagle dogs.
Procedure: Test compounds were orally administered to beagle dogs (single dose). The target dose level for oral administration was 40 mg/kg. Blood samples were collected at pre-dose, and at 0.083, 0.25, 0.50, 1, 2, 4, 6, 8, and 24 hours post-dose. Concentrations of test compound were determined by an LC-MS/MS. Non-compartmental Pharmacokinetic parameters of test compounds were analyzed using Phoenix WinNonlin 8.3.
Animal Dosing: All animals were fasted ˜17-19 h prior to dosing and fed approximately 4 hours after dosing. […] The dogs were dosed at 10.0 ml/kg. The formulation volume of the test compound administered to each animal was calculated based on the body weight measured on the day of dosing.
Sample Collection and Analysis: Approximately 1 mL of blood was collected by jugular vein puncture into tubes containing EDTA-K2 anticoagulant. Plasma samples were harvested by centrifugation (2000 g for 10 minutes at 4° C. within 2 hours after collection) and stored at −80° C. until analysis. The analytical method for test compound involved protein precipitation by adding acetonitrile containing 1% FA and internal standard (A-1-a synthesized in house or Tolbutamide purchased from Sigma), and final analysis by LC-MS/MS. A standard curve was prepared using dog plasma for the test article. The calibration curve was linear over a concentration range of 1.0 to 1000 ng/mL.
(§1) Pharmacokinetic and Statistic Analysis: The reported plasma concentrations of test compounds were used to determine pharmacokinetic parameters, using a non-compartmental model for data analysis (Phoenix WinNonlin 8.3). The common pharmacokinetic parameters were calculated, whenever possible, from the plasma concentration-versus-time data. Nominal doses and sampling times were used, except where deviations were noted. […] BQL after Tmax would not participate in calculation of PK parameters.

[2] = type: in vitro ADME, Human; conditions: extraction ratio; for Liver Microsomal Stability (ER) Human: compound at 1 uM, human liver microsomes 0.5 mg/mL
in vivo [3] = conditions: female, Balb/c, mouse, po, 40 mg/kg
Method: Pharmacokinetics of test compounds was evaluated following an oral administration of a single dose (at 40 mg/kg) to female Balb/c mice.
Procedure: Test compounds were administered to Balb/c mice (n=3 per sex per time point) by a single oral gavage. The target dose level for oral administration was 40 mg/kg. Blood samples were collected at pre-dose, and at 0.083, 0.25, 0.50, 1, 2, 4, 6, 8, and 12 hours post-dose. Concentrations of test compound were determined by an LC-MS/MS. Non-compartmental Pharmacokinetic parameters of test compounds were analyzed using Phoenix WinNonlin 8.3.
Animal Dosing: All animals were fasted overnight through approximately 4 hours post-dose. Tap water was provided to mice ad Libitum. The mice were dosed orally at 10.0 ml/kg. The formulation volume of the test compound administered to each animal was calculated based on the body weight measured on the day of dosing.
Sample Collection and Analysis: Approximately 0.20 mL of blood was collected via orbital sinus vein puncture into EDTA-K2 tubes. Plasma samples were harvested by centrifugation and stored at −80° C. until analysis. The analytical method for test compound involved protein precipitation by adding acetonitrile containing 1% FA and internal standard (A-1-a synthesized in house or Tolbutamide purchased from Sigma), and final analysis by LC-MS/MS. A standard curve was prepared using mouse plasma for the test compound. The calibration curve was linear over a concentration range of 1.0 to 1000 ng/mL.
as §1

[4] = type: in vitro ADME; conditions: extraction ratio, compound at 1 uM; for Liver Microsomal Stability (ER) SD rat: SD rat liver microsomes 0.5 mg/mL; for Liver Microsomal Stability (ER) Beagle dog: beagle dog liver microsomes 0.5 mg/mL; for Liver Microsomal Stability (ER) Mouse: mouse liver microsomes 0.5 mg/mL
SARS-CoV-2 Omicron [5] = test: FRNT assay in A549-hACE2 cells; type: cell-based; conditions: Severe acute respiratory syndrome coronavirus 2, 24 h
SARS-CoV-2 Omicron [6] = test: Virus release assay using EpiAirway; type: cell-based; conditions: Severe acute respiratory syndrome coronavirus 2
SARS-CoV-2 Omicron [7] = test: FRNT assay in Vero E6 cells; type: cell-based; conditions: Severe acute respiratory syndrome coronavirus 2, Vero C1008, 24 h

Row | SMILES | pEC50 (SARS-CoV-2) | AUC0-t (in vivo [1]) [ng·h/mL] | Cmax (in vivo [1]) [ng/mL] | Tmax (in vivo [1]) [h] | bioavailability (in vivo [1]) [%] | half-life (in vivo [1]) [h] | Liver Microsomal Stability (ER) Human [2] | AUC0-t (in vivo [3]) [ng·h/mL] | Cmax (in vivo [3]) [ng/mL] | Tmax (in vivo [3]) [h] | half-life (in vivo [3]) [h] | Liver Microsomal Stability (ER) SD rat [4] | Liver Microsomal Stability (ER) Beagle dog [4] | Liver Microsomal Stability (ER) Mouse [4] | further results
1 | CC(C)C[C@H](NC(=O)c1cc2ccccc2[nH]1)C(=O)N[C@H](C=O)C[C@@H]1CCNC1=O [Compound A-1-c, N—((S)-4-methyl-1-oxo-1-(((S)-1-oxo-3-((S)-2-oxopyrrolidin-3-yl)propan-2-yl)amino)pentan-2-yl)-1H-indole-2-carboxamide] | 6.52 | 36700 | 13800 | 0.833 | 31 | 4.84 | 0.12, | 2170 | 734 | 3 | 1.07 | 0.05 | 0.09 | 0.04 | Liver Microsomal Stability (ER) Human, at 0.1 uM ([2]; compound at 0.1 uM, human liver microsomes): 0.45(0.1 uM)*; bioavailability (in vivo [3]): 8%; Liver Microsomal Stability (ER) Monkey ([4]; monkey liver microsomes 0.5 mg/mL): 0.14
2 | CC(C)C[C@H](NC(=O)c1cc2ccccc2[nH]1)C(=O)N[C@@H](C[C@@H]1CCNC1=O)C(O)S(=O)(=O)[O-].[Na+] (stereo partly drawn) [Compound A-1-d, sodium (2S)-2-((S)-2-(1H-indole-2-carboxamido)-4-methylpentanamido)-1-hydroxy-3-((S)-2-oxopyrrolidin-3-yl)propane-1-sulfonate] | 5.97 | 95900 | 27800 | 2 | > 83 | 2.73 | 0.08 | 2620 | 1610 | 0.5 | 0.893 | 0.12 | 0.04 | 0.10 | pEC50 (SARS-CoV-2 Omicron [5]): 6.89; EC90 (SARS-CoV-2 Omicron [5]): 280 nM; pEC50 (SARS-CoV-2 Omicron [6]): 7.39 to 7.92; EC90 (SARS-CoV-2 Omicron [6]): 12 to 41 nM; pEC50 (SARS-CoV-2 Omicron [7]): 6.44; EC90 (SARS-CoV-2 Omicron [7]): 410 nM
